{
  "source": "PubChem BioAssay (NCI)",
  "assay_in_all_cases": "DTP human tumour cell line panel, 48 h",
  "key": {"ACHN renal": {"test_system": "ACHN renal"}, "CCRF-CEM leukemia": {"test_system": "CCRF-CEM leukemia"}, "HCT-116 colon": {"test_system": "HCT-116 colon"}, "K-562 leukemia": {"test_system": "K-562 leukemia"}, "KM12 colon": {"test_system": "KM12 colon"}, "MDA-MB-435": {"test_system": "MDA-MB-435"}, "SK-MEL-2 melanoma": {"test_system": "SK-MEL-2 melanoma"}, "SNB-75 CNS": {"test_system": "SNB-75 CNS"}, "SW-620 colon": {"test_system": "SW-620 colon"}, "U251 CNS": {"test_system": "U251 CNS"}},
  "note": "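Cells were grown in 96-well plates and exposed to each compound for 48 hours at five concentrations; endpoints were interpolated linearly between bracketing concentrations, or set to the highest concentration if not reached. GI50 = concentration required for 50% inhibition of growth. Definition used: TGI = concentration required for complete inhibition of growth.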",
  "data": [
    {"smiles": "N#CC1=C(N)Oc2c(sc3c(Br)cccc23)C1c1ccc(Br)cc1", "note": "(stereo not given)", "values": [
      {"measurement": "GI50", "setting": "ACHN renal", "result": 912, "unit": "nM"},
      {"measurement": "TGI", "setting": "ACHN renal", "result": 9370, "unit": "nM"},
      {"measurement": "GI50", "setting": "CCRF-CEM leukemia", "result": 496, "unit": "nM"},
      {"measurement": "TGI", "setting": "CCRF-CEM leukemia", "result": 13600, "unit": "nM"},
      {"measurement": "GI50", "setting": "HCT-116 colon", "result": 407, "unit": "nM"},
      {"measurement": "TGI", "setting": "HCT-116 colon", "result": 1840, "unit": "nM"},
      {"measurement": "GI50", "setting": "K-562 leukemia", "result": 137, "unit": "nM"},
      {"measurement": "TGI", "setting": "K-562 leukemia", "result": 3160, "unit": "nM"},
      {"measurement": "GI50", "setting": "KM12 colon", "result": 434, "unit": "nM"},
      {"measurement": "TGI", "setting": "KM12 colon", "result": 10200, "unit": "nM"},
      {"measurement": "GI50", "setting": "MDA-MB-435", "result": 109, "unit": "nM"},
      {"measurement": "TGI", "setting": "MDA-MB-435", "result": 460, "unit": "nM"},
      {"measurement": "GI50", "setting": "SK-MEL-2 melanoma", "result": 434, "unit": "nM"},
      {"measurement": "TGI", "setting": "SK-MEL-2 melanoma", "result": 4000, "unit": "nM"},
      {"measurement": "GI50", "setting": "SNB-75 CNS", "result": 407, "unit": "nM"},
      {"measurement": "TGI", "setting": "SNB-75 CNS", "result": 3090, "unit": "nM"},
      {"measurement": "GI50", "setting": "SW-620 colon", "result": 1550, "unit": "nM"},
      {"measurement": "TGI", "setting": "SW-620 colon", "result": 15100, "unit": "nM"},
      {"measurement": "GI50", "setting": "U251 CNS", "result": 544, "unit": "nM"},
      {"measurement": "TGI", "setting": "U251 CNS", "result": 2050, "unit": "nM"}
    ]}
  ]
}
